The values that follow are results of earlier work, collected in patent publication US7705017B2, “Compounds for treatment of neurodegenerative diseases” (En Vivo Pharmaceuticals, Inc., priority 2004, dated 2010).

Structures are written as SMILES.

The subject of data set [1] is Histone Deacetylase-Like Protein (HDLP). The settings on record: HDLP deacetylates histones in vitro.
For data set [2], the system named is Huntington's disease in a mouse model. The settings on record: orally administered.

Regarding `CC(/C=C/C(=O)NO)=C\[C@@H](C)C(=O)c1ccc(N(C)C)cc1` [TSA, trichostatin A], in data set [1], the “inhibition of HDAC-like protein (HDLP)” value was “inhibited”.

`O=C(CCCCCCC(=O)Nc1ccccc1)NO` [SAHA, suberoylanilide hydroxamic acid]: the “motor impairment in mice” value in data set [2] is given as “dramatically improved the motor impairment”.
